# Laboratory results taken from the Kinase Knowledgebase extract (Sharma et al. 2016).
# What was measured:
# [1] = target: PIK3CB (Human) (UniProt P42338); assay: Assessment of PIK3CB Kinase Activity
# [2] = target: PIK3CA (human) (UniProt P42336); assay: Assessment of PIK3CA Kinase Activity
# [3] = target: PIK3CG (human) (UniProt P48736); assay: Assessment of PIK3CG Kinase Activity
# [4] = target: PIK3CD (Human) (UniProt O00329); assay: Assessment of PIK3CD Kinase Activity in RAJI Cells
# [5] = target: PIK3CD (Human) (UniProt O00329); assay: Assessment of PIK3CD Kinase Activity
# Sequence of PIK3CG (human) (P48736 whole entry, looked up): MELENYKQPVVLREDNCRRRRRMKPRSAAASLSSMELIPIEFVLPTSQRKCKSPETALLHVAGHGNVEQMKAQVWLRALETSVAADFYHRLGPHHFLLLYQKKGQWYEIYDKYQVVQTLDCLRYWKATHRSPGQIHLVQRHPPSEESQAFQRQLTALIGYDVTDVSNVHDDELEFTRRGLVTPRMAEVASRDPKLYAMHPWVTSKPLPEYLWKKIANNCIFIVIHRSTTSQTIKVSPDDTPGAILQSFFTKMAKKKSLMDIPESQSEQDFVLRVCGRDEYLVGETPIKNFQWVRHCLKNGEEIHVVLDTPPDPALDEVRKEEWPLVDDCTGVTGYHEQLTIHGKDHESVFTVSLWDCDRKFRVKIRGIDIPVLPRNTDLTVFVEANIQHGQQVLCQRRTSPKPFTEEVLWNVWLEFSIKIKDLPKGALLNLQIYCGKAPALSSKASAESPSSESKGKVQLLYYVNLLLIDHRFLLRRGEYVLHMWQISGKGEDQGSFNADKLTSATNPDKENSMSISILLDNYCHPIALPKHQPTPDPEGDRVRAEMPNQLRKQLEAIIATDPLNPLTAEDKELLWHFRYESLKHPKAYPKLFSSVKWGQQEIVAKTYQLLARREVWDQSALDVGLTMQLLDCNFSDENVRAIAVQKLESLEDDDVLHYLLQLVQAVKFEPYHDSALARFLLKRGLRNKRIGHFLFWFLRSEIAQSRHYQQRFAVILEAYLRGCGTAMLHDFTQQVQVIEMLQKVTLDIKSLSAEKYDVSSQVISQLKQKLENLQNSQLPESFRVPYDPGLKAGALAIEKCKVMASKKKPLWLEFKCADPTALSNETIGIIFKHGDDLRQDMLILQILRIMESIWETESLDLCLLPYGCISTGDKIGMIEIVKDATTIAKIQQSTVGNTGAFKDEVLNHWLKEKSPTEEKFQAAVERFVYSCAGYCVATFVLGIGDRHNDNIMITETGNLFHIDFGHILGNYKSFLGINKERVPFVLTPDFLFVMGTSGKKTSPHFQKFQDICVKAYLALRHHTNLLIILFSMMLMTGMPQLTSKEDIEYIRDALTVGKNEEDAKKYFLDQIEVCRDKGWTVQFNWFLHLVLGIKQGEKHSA
# Sequence of PIK3CD (Human) (O00329 whole entry, looked up): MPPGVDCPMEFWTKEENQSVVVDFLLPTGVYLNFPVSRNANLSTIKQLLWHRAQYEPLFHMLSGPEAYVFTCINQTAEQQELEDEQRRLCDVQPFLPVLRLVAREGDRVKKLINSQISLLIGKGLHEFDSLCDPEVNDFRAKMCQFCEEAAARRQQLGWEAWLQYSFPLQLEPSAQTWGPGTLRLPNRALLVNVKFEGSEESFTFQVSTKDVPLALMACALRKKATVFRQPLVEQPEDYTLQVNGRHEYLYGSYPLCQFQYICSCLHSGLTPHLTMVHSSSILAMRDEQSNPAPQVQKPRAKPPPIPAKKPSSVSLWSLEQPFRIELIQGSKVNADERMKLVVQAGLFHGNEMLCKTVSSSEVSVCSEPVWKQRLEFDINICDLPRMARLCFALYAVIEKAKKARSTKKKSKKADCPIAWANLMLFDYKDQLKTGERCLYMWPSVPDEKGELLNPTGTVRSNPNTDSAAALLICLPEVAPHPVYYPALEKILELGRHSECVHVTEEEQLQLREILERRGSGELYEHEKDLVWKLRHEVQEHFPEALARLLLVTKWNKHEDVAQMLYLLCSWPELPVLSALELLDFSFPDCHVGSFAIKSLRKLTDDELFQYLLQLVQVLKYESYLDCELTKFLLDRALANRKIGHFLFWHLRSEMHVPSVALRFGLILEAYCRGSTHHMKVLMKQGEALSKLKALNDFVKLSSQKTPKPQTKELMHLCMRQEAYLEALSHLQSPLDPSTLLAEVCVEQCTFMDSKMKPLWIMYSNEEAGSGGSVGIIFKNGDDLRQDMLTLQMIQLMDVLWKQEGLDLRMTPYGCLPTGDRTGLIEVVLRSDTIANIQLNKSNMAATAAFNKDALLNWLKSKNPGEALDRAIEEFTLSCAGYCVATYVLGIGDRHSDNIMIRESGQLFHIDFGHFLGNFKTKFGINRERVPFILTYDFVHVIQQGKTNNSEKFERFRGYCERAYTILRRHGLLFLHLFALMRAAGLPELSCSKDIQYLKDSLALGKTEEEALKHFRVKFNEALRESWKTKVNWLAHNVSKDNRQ
# Sequence of PIK3CB (Human) (P42338 whole entry, looked up): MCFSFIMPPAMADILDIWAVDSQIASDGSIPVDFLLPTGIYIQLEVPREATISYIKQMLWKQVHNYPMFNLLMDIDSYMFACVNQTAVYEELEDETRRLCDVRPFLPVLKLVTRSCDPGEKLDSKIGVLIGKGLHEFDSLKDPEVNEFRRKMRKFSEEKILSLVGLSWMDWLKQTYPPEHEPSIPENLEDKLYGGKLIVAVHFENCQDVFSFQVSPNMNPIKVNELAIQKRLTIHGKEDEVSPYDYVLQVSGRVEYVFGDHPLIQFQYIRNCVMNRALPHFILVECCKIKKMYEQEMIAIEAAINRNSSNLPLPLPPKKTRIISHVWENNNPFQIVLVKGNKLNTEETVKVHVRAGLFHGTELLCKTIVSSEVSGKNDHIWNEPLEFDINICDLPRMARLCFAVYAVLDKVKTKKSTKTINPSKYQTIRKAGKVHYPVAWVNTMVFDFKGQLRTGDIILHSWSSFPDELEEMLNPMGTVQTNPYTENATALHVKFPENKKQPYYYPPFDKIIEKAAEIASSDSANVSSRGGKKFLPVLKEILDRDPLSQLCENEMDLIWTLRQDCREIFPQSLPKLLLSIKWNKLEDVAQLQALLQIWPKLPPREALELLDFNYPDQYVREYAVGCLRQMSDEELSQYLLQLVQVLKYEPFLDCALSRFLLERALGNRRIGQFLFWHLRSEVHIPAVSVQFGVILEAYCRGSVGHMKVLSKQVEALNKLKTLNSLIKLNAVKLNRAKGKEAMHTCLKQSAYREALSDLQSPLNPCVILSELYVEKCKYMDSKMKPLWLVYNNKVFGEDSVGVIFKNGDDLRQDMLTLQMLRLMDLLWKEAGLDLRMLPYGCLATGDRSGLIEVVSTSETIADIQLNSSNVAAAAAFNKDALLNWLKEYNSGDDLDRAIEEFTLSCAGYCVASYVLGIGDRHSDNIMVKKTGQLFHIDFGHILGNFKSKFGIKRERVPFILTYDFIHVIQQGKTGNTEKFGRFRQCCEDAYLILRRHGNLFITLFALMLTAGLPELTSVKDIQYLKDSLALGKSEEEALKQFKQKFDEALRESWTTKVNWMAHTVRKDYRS
# Sequence of PIK3CA (human) (P42336 whole entry, looked up): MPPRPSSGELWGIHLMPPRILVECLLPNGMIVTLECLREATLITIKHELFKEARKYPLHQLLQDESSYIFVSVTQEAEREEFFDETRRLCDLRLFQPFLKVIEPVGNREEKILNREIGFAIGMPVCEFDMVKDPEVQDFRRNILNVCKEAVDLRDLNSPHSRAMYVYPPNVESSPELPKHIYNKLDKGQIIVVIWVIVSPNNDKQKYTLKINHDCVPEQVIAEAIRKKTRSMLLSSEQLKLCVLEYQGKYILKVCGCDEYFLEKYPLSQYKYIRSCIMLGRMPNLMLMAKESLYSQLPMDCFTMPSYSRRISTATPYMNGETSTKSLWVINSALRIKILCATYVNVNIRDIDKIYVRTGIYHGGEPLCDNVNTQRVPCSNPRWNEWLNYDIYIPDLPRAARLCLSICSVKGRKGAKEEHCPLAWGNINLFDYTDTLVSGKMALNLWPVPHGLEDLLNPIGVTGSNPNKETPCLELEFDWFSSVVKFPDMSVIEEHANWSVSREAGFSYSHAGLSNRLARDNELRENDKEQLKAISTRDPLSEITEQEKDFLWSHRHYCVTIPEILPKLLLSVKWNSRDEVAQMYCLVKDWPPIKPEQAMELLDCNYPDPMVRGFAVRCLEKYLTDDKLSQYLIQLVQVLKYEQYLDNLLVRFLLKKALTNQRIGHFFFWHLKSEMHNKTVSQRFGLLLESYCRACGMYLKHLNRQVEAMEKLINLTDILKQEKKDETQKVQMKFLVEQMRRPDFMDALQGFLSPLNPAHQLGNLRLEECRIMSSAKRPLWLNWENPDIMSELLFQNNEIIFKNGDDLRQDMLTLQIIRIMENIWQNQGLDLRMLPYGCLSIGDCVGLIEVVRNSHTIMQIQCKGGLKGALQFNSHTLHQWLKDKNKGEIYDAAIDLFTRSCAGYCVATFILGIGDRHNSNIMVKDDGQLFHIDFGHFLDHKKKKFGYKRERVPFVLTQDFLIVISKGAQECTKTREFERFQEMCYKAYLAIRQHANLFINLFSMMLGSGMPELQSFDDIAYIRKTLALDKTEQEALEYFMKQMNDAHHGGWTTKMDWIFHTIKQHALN
structure (smiles),measurement,setting,value
C[C@H](Nc1nc(N)ncc1-c1cccc(S(=O)(=O)N2CCCCC2)c1)c1cc2cccc(Cl)c2c(=O)n1-c1ccccc1,IC50,[1],100 to 1000 nM
same,IC50,[2],100 to 1000 nM
same,IC50,[3],< 100 nM
same,IC50,[4],< 100 nM
same,IC50,[5],100 to 1000 nM
CC(=O)c1cnc(N)nc1N[C@@H](C)c1cc2cccc(Cl)c2c(=O)n1-c1ccccc1,IC50,[1],< 100 nM
same,IC50,[2],100 to 1000 nM
same,IC50,[3],< 100 nM
same,IC50,[4],< 100 nM
same,IC50,[5],< 100 nM
CCS(=O)(=O)c1cccc(-c2cnc(N)nc2N[C@@H](C)c2cc3cccc(Cl)c3c(=O)n2-c2ccccc2)c1,IC50,[1],100 to 1000 nM
same,IC50,[3],> 10000 nM
same,IC50,[4],< 100 nM
same,IC50,[5],100 to 1000 nM
COc1cc(-c2cccc3cc([C@H](C)Nc4nc(N)ncc4C#N)n(-c4ccccc4)c(=O)c23)ccn1,IC50,[2],100 to 1000 nM
same,IC50,[3],< 100 nM
same,IC50,[4],< 100 nM
same,IC50,[5],< 100 nM
COc1ncc(-c2cnc(N)nc2N[C@@H](C)c2cc3cccc(Cl)c3c(=O)n2-c2ccccc2)s1,IC50,[2],> 10000 nM
same,IC50,[3],< 100 nM
same,IC50,[4],< 100 nM
same,IC50,[5],< 100 nM
C[C@H](Nc1nc(N)ncc1C#N)c1cc2cccc(Cl)c2c(=O)n1-c1c(F)cccc1F,IC50,[2],> 10000 nM
same,IC50,[3],100 to 1000 nM
same,IC50,[4],< 100 nM
CC(C)n1c([C@H](C)Nc2ncnc(N)c2C#N)cc2cccc(Cl)c2c1=O,IC50,[3],100 to 1000 nM
same,IC50,[4],< 100 nM
same,IC50,[5],< 100 nM
N#Cc1cnc(N)nc1NCc1cc2cccc(Cl)c2c(=O)n1-c1ccccc1,IC50,[3],100 to 1000 nM
same,IC50,[4],< 100 nM
same,IC50,[5],< 100 nM
CC(C)OC(=O)c1cccc(-n2c([C@H](C)Nc3nc(N)ncc3C#N)cc3cccc(Cl)c3c2=O)c1,IC50,[1],> 10000 nM
same,IC50,[2],> 10000 nM
same,IC50,[3],100 to 1000 nM
same,IC50,[4],< 100 nM
same,IC50,[5],100 to 1000 nM
CC(C)C(=O)c1cnc(N)nc1N[C@@H](C)c1cc2cccc(Cl)c2c(=O)n1-c1ccccc1,IC50,[1],> 10000 nM
same,IC50,[3],100 to 1000 nM
same,IC50,[4],< 100 nM
same,IC50,[5],100 to 1000 nM
CCOc1nc(-c2cnc(N)nc2N[C@@H](C)c2cc3cccc(-c4cnc(OC)nc4)c3c(=O)n2-c2ccccc2)cs1,IC50,[3],100 to 1000 nM
same,IC50,[4],< 100 nM
same,IC50,[5],< 100 nM
C[C@H](Nc1nc(N)ncc1-c1cccc(S(C)(=O)=O)c1)c1cc2cccc(Cl)c2c(=O)n1-c1ccccc1,IC50,[3],< 100 nM
same,IC50,[4],< 100 nM
same,IC50,[5],100 to 1000 nM
C[C@H](Nc1ncnc(N)c1C#N)c1cc2cccc(Cl)c2c(C(=O)NC2CCOCC2)n1,IC50,[1],> 10000 nM
same,IC50,[2],> 10000 nM
same,IC50,[4],< 100 nM
same,IC50,[5],100 to 1000 nM
COc1ncc(-c2cccc3cc([C@H](C)Nc4ncnc(N)c4C#N)n(-c4ccon4)c(=O)c23)cn1,IC50,[1],> 10000 nM
same,IC50,[4],< 100 nM
same,IC50,[5],100 to 1000 nM
C[C@H](Nc1nc(N)ncc1-c1cccc(S(=O)(=O)C2CC2)c1)c1cc2cccc(Cl)c2c(=O)n1-c1ccccc1,IC50,[3],< 100 nM
same,IC50,[4],< 100 nM
same,IC50,[5],< 100 nM
C[C@H](Nc1nc(N)ncc1-c1cccc(S(C)(=O)=O)c1)c1cc2cccc(C(F)(F)F)c2c(=O)n1-c1ccccc1,IC50,[3],100 to 1000 nM
same,IC50,[4],< 100 nM
same,IC50,[5],100 to 1000 nM
C[C@H](Nc1nc(N)ncc1-c1cccc(S(N)(=O)=O)c1)c1cc2cccc(Cl)c2c(=O)n1-c1ccccc1,IC50,[1],> 10000 nM
same,IC50,[3],< 100 nM
same,IC50,[4],< 100 nM
same,IC50,[5],100 to 1000 nM
C[C@H](Nc1nc(N)ncc1-c1cccc(NS(C)(=O)=O)c1)c1cc2cccc(Cl)c2c(=O)n1-c1ccccc1,IC50,[3],< 100 nM
same,IC50,[4],< 100 nM
same,IC50,[5],< 100 nM
C[C@H](Nc1nc(N)ncc1C#N)c1cc2cccc(Cl)c2c(=O)n1-c1ccc(F)c(F)c1,IC50,[2],> 10000 nM
same,IC50,[3],< 100 nM
same,IC50,[4],< 100 nM
Cc1ncc(-c2cccc3cc([C@H](C)Nc4nc(N)ncc4C#N)n(-c4ccon4)c(=O)c23)cn1,IC50,[1],> 10000 nM
same,IC50,[2],> 10000 nM
same,IC50,[4],< 100 nM
same,IC50,[5],< 100 nM
C[C@H](Nc1ncncc1-c1cccc(S(=O)(=O)N(C)C)c1)c1cc2cccc(Cl)c2c(=O)n1-c1ccccc1,IC50,[1],> 10000 nM
same,IC50,[3],100 to 1000 nM
same,IC50,[4],< 100 nM
same,IC50,[5],100 to 1000 nM
COc1ncc(-c2cccc3cc([C@H](C)Nc4nc(N)ncc4C#N)n(C(C)C)c(=O)c23)cn1,IC50,[1],> 10000 nM
same,IC50,[3],100 to 1000 nM
same,IC50,[4],< 100 nM
same,IC50,[5],< 100 nM
C[C@H](Nc1nc(N)ncc1-c1ccc(S(C)(=O)=O)nc1)c1cc2cccc(Cl)c2c(=O)n1-c1ccccc1,IC50,[2],> 10000 nM
same,IC50,[3],100 to 1000 nM
same,IC50,[4],< 100 nM
C[C@H](Nc1nc(N)ncc1C#N)c1cc2cccc(Cl)c2c(=O)n1-c1cccc(C#N)c1,IC50,[1],100 to 1000 nM
same,IC50,[3],100 to 1000 nM
same,IC50,[4],< 100 nM
same,IC50,[5],< 100 nM
COc1cccc(-n2c([C@H](C)Nc3nc(N)ncc3C#N)cc3cccc(Cl)c3c2=O)c1,IC50,[2],> 10000 nM
same,IC50,[3],< 100 nM
same,IC50,[4],< 100 nM
same,IC50,[5],100 to 1000 nM
Cc1ccc(NS(C)(=O)=O)cc1-c1cnc(N)nc1N[C@@H](C)c1cc2cccc(Cl)c2c(=O)n1-c1ccccc1,IC50,[2],> 10000 nM
same,IC50,[3],< 100 nM
same,IC50,[4],< 100 nM
same,IC50,[5],< 100 nM
C[C@H](Nc1nc(N)ncc1C#N)c1cc2cccc(-c3cncc(NS(C)(=O)=O)c3)c2c(=O)n1-c1ccccc1,IC50,[3],< 100 nM
same,IC50,[4],< 100 nM
CNS(=O)(=O)c1cccc(-c2cnc(N)nc2N[C@@H](C)c2cc3cccc(Cl)c3c(=O)n2-c2ccccc2)c1,IC50,[1],100 to 1000 nM
same,IC50,[3],< 100 nM
same,IC50,[4],< 100 nM
same,IC50,[5],100 to 1000 nM
C[C@H](Nc1nc(N)ncc1C#N)c1cc2cccc(-c3ccc(=O)n(C)c3)c2c(=O)n1-c1ccon1,IC50,[3],100 to 1000 nM
same,IC50,[4],< 100 nM
C[C@H](Nc1nc(N)ncc1-c1cccc(N(C)S(C)(=O)=O)c1)c1cc2cccc(Cl)c2c(=O)n1-c1ccccc1,IC50,[3],< 100 nM
same,IC50,[4],< 100 nM
same,IC50,[5],100 to 1000 nM
COc1cc(-n2c([C@H](C)Nc3nc(N)ncc3C#N)cc3cccc(Cl)c3c2=O)ccc1F,IC50,[2],> 10000 nM
same,IC50,[3],< 100 nM
same,IC50,[4],< 100 nM
COC(=O)c1cccc(-n2c([C@H](C)Nc3nc(N)ncc3C#N)cc3cccc(Cl)c3c2=O)c1,IC50,[1],> 10000 nM
same,IC50,[4],< 100 nM
same,IC50,[5],100 to 1000 nM
C[C@H](Nc1nc(N)ncc1C#N)c1cc2cccc(Cl)c2c(=O)n1C1CC1,IC50,[2],> 10000 nM
same,IC50,[3],< 100 nM
same,IC50,[4],< 100 nM
COc1ncc(-c2cccc3cc([C@H](C)Nc4nc(N)ncc4C#N)n(-c4ccon4)c(=O)c23)cn1,IC50,[1],> 10000 nM
same,IC50,[2],> 10000 nM
same,IC50,[4],< 100 nM
same,IC50,[5],100 to 1000 nM
COc1ncc(-c2cccc3cc([C@H](C)Nc4nc(N)ncc4-c4cncs4)n(-c4ccccc4)c(=O)c23)cn1,IC50,[3],< 100 nM
same,IC50,[4],< 100 nM
same,IC50,[5],< 100 nM
C[C@H](Nc1nc(N)ncc1-c1cncc(S(C)(=O)=O)c1)c1cc2cccc(Cl)c2c(=O)n1-c1ccccc1,IC50,[3],100 to 1000 nM
same,IC50,[4],< 100 nM
C[C@H](Nc1cc(C(F)(F)F)nc(N)n1)c1cc2cccc(Cl)c2c(=O)n1-c1ccccc1,IC50,[1],> 10000 nM
same,IC50,[2],> 10000 nM
same,IC50,[3],> 10000 nM
same,IC50,[5],> 10000 nM
COc1cc(-c2cccc3cc([C@H](C)Nc4nc(N)ncc4C#N)n(C4CC4)c(=O)c23)ccn1,IC50,[1],< 100 nM
same,IC50,[2],100 to 1000 nM
same,IC50,[3],< 100 nM
same,IC50,[5],< 100 nM
C[C@H](Nc1nc(N)ncc1C(=O)C1CC1)c1cc2cccc(Cl)c2c(=O)n1-c1ccccc1,IC50,[1],> 10000 nM
same,IC50,[4],< 100 nM
COc1ncc(-c2cccc3nc([C@H](C)Nc4nc(N)ncc4C#N)n(-c4ccccc4)c(=O)c23)cn1,IC50,[1],> 10000 nM
same,IC50,[2],> 10000 nM
same,IC50,[3],< 100 nM
same,IC50,[5],< 100 nM
COc1ccc(-c2cnc(N)nc2N[C@@H](C)c2cc3cccc(Cl)c3c(=O)n2-c2ccccc2)cn1,IC50,[1],> 10000 nM
same,IC50,[3],< 100 nM
same,IC50,[4],< 100 nM
same,IC50,[5],100 to 1000 nM
C[C@H](Nc1nc(N)ncc1[N+](=O)[O-])c1cc2cccc(Cl)c2c(=O)n1-c1ccccc1,IC50,[1],100 to 1000 nM
same,IC50,[2],> 10000 nM
same,IC50,[3],< 100 nM
same,IC50,[5],< 100 nM
C[C@H](Nc1nc(N)ncc1-c1cnc(S(C)(=O)=O)s1)c1cc2cccc(Cl)c2c(=O)n1-c1ccccc1,IC50,[2],> 10000 nM
same,IC50,[3],< 100 nM
same,IC50,[4],< 100 nM
same,IC50,[5],< 100 nM
